Where a name gives a salt, the structure may show the parent alone. Values belong to the compound of their own block, whether it stands above or below them.
Key:
[1] = intravenous bolus injection; cited from earlier work
[2] = OVX rats; oral administration; in the presence of an anti-resorptive agent (Gowen et al. 2000); cited from earlier work
[3] = postmenopausal women; placebo-controlled trial (Neer et al. 2001); cited from earlier work

- melting point: 158 to 163 °C
Compound: COc1ccc(CC(C)(C)NC[C@H](O)[C@H]2CSCN2Cc2cccc(C#N)c2)cc1 (stereo in doubt) (as salt: hydrochloride) [Example 3, 3-(4-{1-Hydroxy-2-[2-(4-methoxy-phenyl)-1,1-dimethyl-ethylamino]-ethyl}-thiazolidin-3-ylmethyl)-benzonitrile]

- melting point: 80 to 85 °C
Compound: CC(C)(Cc1ccc2ccccc2c1)NC[C@H](O)[C@H]1CSCN1Cc1ccc(SCc2ccco2)c([N+](=O)[O-])c1 (stereo in doubt) [Example 4, 2-(1,1-Dimethyl-2-naphthalen-2-yl-ethylamino)-1-{3-[4-(furan-2-ylmethylsulfanyl)-3-nitro-benzyl]-thiazolidin-4-yl}-ethanol]

Compound: CC(C)(Cc1ccc2ccccc2c1)NC[C@@H](O)COc1cccc(Cl)c1C#N [NPS-2143]
- effect on serum PTH [1]: transient increase in serum PTH
- effect on bone mass [2]: increase in bone mass

Compound: PTH peptide fragment (1–34): PTH peptide fragment (1–34), parathyroid hormone fragment; stimulator of bone formation (SVSEIQLMHNLGKHLNSMERVEWLRKKLQDVHNF; Parathyroid hormone; UniProt P01270 32-65, looked up, fragment)
- reduction of the risk of non-traumatic, non-spine fractures [3]: 54%
- reduction of the risk of spine fractures [3]: 65%

From patent publication US7205322B2, “Thiazolidine compounds as calcium sensing receptor modulators” (Bristol-Myers Squibb Company, priority 2003, dated 2007)
